System: PBMC cultures from HIV-1 infected subjects on cART
Assay: Induced cytokines and chemokines in PBMC cultures from HIV-1 infected subjects on cART (multiplexed Luminex)
Assay type: cell-based, human
Settings: for I-TAC Fold vs DMSO / IFN-α / IFN-α Fold vs DMSO / IFN-γ / IFN-γ Fold vs DMSO / IL-6 pg/ml / IL-8 pg/ml / IL-10 pg/ml / IL-18 pg/ml / IL-23 pg/ml / IL-1RA / IL-1RA Fold vs DMSO / IL-1β / IL-1β Fold vs DMSO / IL-6 Fold vs DMSO / IL-8 Fold vs DMSO / IL-10 Fold vs DMSO / IL-12p70 pg/ml / IL-12p70 Fold vs DMSO / IL-18 Fold vs DMSO / IL-23 Fold vs DMSO / IP-10 pg/ml / IP-10 Fold vs DMSO / MCP-1 pg/ml / MCP-1 Fold vs DMSO / MIP-1α / MIP-1α Fold vs DMSO / MIP-1β / MIP-1β Fold vs DMSO / MIP-3α / MIP-3α Fold vs DMSO / MMP-1 pg/ml / MMP-1 Fold vs DMSO / TNF-α / TNF-α Fold vs DMSO / GRO-α / GRO-α Fold vs DMSO / Granzyme B / Granzyme B Fold vs DMSO / I-TAC: day 2, geometric mean, 4 subjects
Experimental: To further characterize the immune modulatory effect of TLR8 agonists in cells from HIV-infected subjects, the production of secreted cytokines and chemokines was measured in PBMCs from 4 HIV-infected subjects on suppressive cART (anonymized participant IDs 180-183). PBMCs were purified, as described in Example 121, and immediately added to tissue culture plates pre-equilibrated at 37° C. with media containing DMSO (vehicle control) or with the TLR8 modulating compound Example 15 at concentrations ranging from 1.0 nM to 10.0 μM. On day 2 after treatment, cell-free culture supernatants were collected and frozen at −80 C for subsequent analysis. Frozen supernatants were thawed at room temperature, and the indicated cytokines and chemokines were quantified with a custom multiplexed xMAP Luminex® assay following the manufacturer's instructions (Thermo Fisher Scientific Inc., Grand Island, N.Y., custom-designed kit).
Data are expressed as geometric mean cytokine values (pg/ml) obtained from 4 subjects' PBMCs. Geometric mean fold-activation from three independent incubation samples for each condition. Fold (fold-activation) is calculated as a ratio of the concentration of cytokine detected in cell culture supernatants from agonist treated samples relative to DMSO treated samples

## CCCC[C@H](CO)Nc1nc(N)nc2cccnc12 [Example 15]
Ex 15 1000 nM
  I-TAC Fold vs DMSO: 2 fold
  IFN-α: 6 pg/mL
  IFN-α Fold vs DMSO: 3 fold
  IFN-γ: 5693 pg/mL
  IFN-γ Fold vs DMSO: 228 fold
  IL-6 pg/ml: 22600 pg/mL
  IL-8 pg/ml: 1565 pg/mL
  IL-10 pg/ml: 3719 pg/mL
  IL-18 pg/ml: 191 pg/mL
  IL-23 pg/ml: 465 pg/mL
  IL-1RA: 164731 pg/mL
  IL-1RA Fold vs DMSO: 46 fold
  IL-1β: 4735 pg/mL
  IL-1β Fold vs DMSO: 1578 fold
  IL-6 Fold vs DMSO: 290 fold
  IL-8 Fold vs DMSO: 5 fold
  IL-10 Fold vs DMSO: 219 fold
  IL-12p70 pg/ml: 524 pg/mL
  IL-12p70 Fold vs DMSO: 175 fold
  IL-18 Fold vs DMSO: 11 fold
  IL-23 Fold vs DMSO: 8 fold
  IP-10 pg/ml: 741 pg/mL
  IP-10 Fold vs DMSO: 3 fold
  MCP-1 pg/ml: 1464 pg/mL
  MCP-1 Fold vs DMSO: 22 fold
  MIP-1α: 18689 pg/mL
  MIP-1α Fold vs DMSO: 374 fold
  MIP-1β: 415739 pg/mL
  MIP-1β Fold vs DMSO: 340 fold
  MIP-3α: 1085 pg/mL
  MIP-3α Fold vs DMSO: 42 fold
  MMP-1 pg/ml: 317 pg/mL
  MMP-1 Fold vs DMSO: 3 fold
  TNF-α: 34880 pg/mL
  TNF-α Fold vs DMSO: 1661 fold
Ex 15 3000 nM
  GRO-α: 418 pg/mL
  GRO-α Fold vs DMSO: 18 fold
  Granzyme B: 857 pg/mL
  Granzyme B Fold vs DMSO: 4 fold
  I-TAC: 98 pg/mL
  I-TAC Fold vs DMSO: 2 fold
  IFN-α: 6 pg/mL
  IFN-α Fold vs DMSO: 3 fold
  IFN-γ: 3586 pg/mL
  IFN-γ Fold vs DMSO: 143 fold
  IL-6 pg/ml: 15198 pg/mL
  IL-8 pg/ml: 1139 pg/mL
  IL-10 pg/ml: 4747 pg/mL
  IL-18 pg/ml: 308 pg/mL
  IL-23 pg/ml: 1163 pg/mL
  IL-1RA: 88340 pg/mL
  IL-1RA Fold vs DMSO: 25 fold
  IL-1β: 5302 pg/mL
  IL-1β Fold vs DMSO: 1767 fold
  IL-6 Fold vs DMSO: 195 fold
  IL-8 Fold vs DMSO: 4 fold
  IL-10 Fold vs DMSO: 279 fold
  IL-12p70 pg/ml: 381 pg/mL
  IL-12p70 Fold vs DMSO: 127 fold
  IL-18 Fold vs DMSO: 18 fold
  IL-23 Fold vs DMSO: 19 fold
  IP-10 pg/ml: 711 pg/mL
  IP-10 Fold vs DMSO: 3 fold
  MCP-1 pg/ml: 1646 pg/mL
  MCP-1 Fold vs DMSO: 25 fold
  MIP-1α: 21047 pg/mL
  MIP-1α Fold vs DMSO: 421 fold
  MIP-1β: 293183 pg/mL
  MIP-1β Fold vs DMSO: 240 fold
  MIP-3α: 2141 pg/mL
  MIP-3α Fold vs DMSO: 82 fold
  MMP-1 pg/ml: 311 pg/mL
  MMP-1 Fold vs DMSO: 3 fold
  TNF-α: 64062 pg/mL
  TNF-α Fold vs DMSO: 3051 fold
Ex 15 10000 nM
  GRO-α: 433 pg/mL
  GRO-α Fold vs DMSO: 19 fold
  Granzyme B: 644 pg/mL
  Granzyme B Fold vs DMSO: 3 fold
  I-TAC: 69 pg/mL
  I-TAC Fold vs DMSO: 1 fold
  IFN-α: 4 pg/mL
  IFN-α Fold vs DMSO: 2 fold
  IFN-γ: 1478 pg/mL
  IFN-γ Fold vs DMSO: 59 fold
  IL-6 pg/ml: 18836 pg/mL
  IL-8 pg/ml: 1118 pg/mL
  IL-10 pg/ml: 5167 pg/mL
  IL-18 pg/ml: 218 pg/mL
  IL-23 pg/ml: 965 pg/mL
  IL-1RA: 90289 pg/mL
  IL-1RA Fold vs DMSO: 25 fold
  IL-1β: 6611 pg/mL
  IL-1β Fold vs DMSO: 2204 fold
  IL-6 Fold vs DMSO: 241 fold
  IL-8 Fold vs DMSO: 4 fold
  IL-10 Fold vs DMSO: 304 fold
  IL-12p70 pg/ml: 113 pg/mL
  IL-12p70 Fold vs DMSO: 38 fold
  IL-18 Fold vs DMSO: 13 fold
  IL-23 Fold vs DMSO: 16 fold
  IP-10 pg/ml: 587 pg/mL
  IP-10 Fold vs DMSO: 2 fold
  MCP-1 pg/ml: 1796 pg/mL
  MCP-1 Fold vs DMSO: 27 fold
  MIP-1α: 24365 pg/mL
  MIP-1α Fold vs DMSO: 487 fold
  MIP-1β: 239694 pg/mL
  MIP-1β Fold vs DMSO: 196 fold
  MIP-3α: 1680 pg/mL
  MIP-3α Fold vs DMSO: 65 fold
  MMP-1 pg/ml: 740 pg/mL
  MMP-1 Fold vs DMSO: 8 fold
  TNF-α: 23017 pg/mL
  TNF-α Fold vs DMSO: 1096 fold
Example 15, 1.0 nM to 10.0 μM
  Peak fold-activation relative to DMSO, IL-12p70: 518 fold
  Peak fold-activation relative to DMSO, IL-18: 18 fold
  Peak fold-activation relative to DMSO, TNF-α: 3051 fold
Example 15, 1.0 nM to 10.0 μM, did not induce at levels >2-fold
  Induction of IFN-ω, IL-2, IL-4, IL-5, IL-7, IL-15, IL-17A, IL-21, IL-27, or IL-29 compared to DMSO control: ≤ 2 fold

Reference: patent US20170071944A1, “MODULATORS OF TOLL-LIKE RECEPTORS FOR THE TREATMENT OF HIV” (Gilead Sciences, Inc., priority 2015, published 2017)
